The text below walks through data of patent US6335350B1, “Acetamide and substituted acetamide-containing thiourea inhibitors of herpes viruses” (American Home Products Corporation, priority 1998, dated 2002).

≈ marks a conversion by molar mass, not a printed value. Bounds are passed on as bounds.

One test concerns HCMV wild-type. As to the kind of experiment: HCMV yield assay. The format is cell-based, human cytomegalovirus. The settings on record: human foreskin fibroblasts; for IC50: Human betaherpesvirus 5, Fibroblast, read-out: IC50 Ug/ml HCMV. Put shortly:
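Value is the compound amount cutting virus yield titer by 50% (IC50) or 90% (IC90). Human foreskin fibroblasts infected with wild-type HCMV (MOI typically 0.2) under varying compound; progeny harvested day 3, titered compound-free on fibroblasts, plaques scored at 2 weeks.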

The test system of a further test is HSV-1. As to the kind of experiment: HSV Antiviral (ELISA) Assay. The class given is cell-based, herpes simplex virus type 1. The settings on record: Vero cells, HSV-1; for IC50: Human alphaherpesvirus 1, Vero, read-out: IC50 Ug/ml HSV. The essentials:
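Replication measured as glycoprotein D signal in fixed cells: anti-gD antibody plus β-galactosidase-linked secondary, fluorogenic substrate read at 365/450 nm. Vero cells (2% FBS DMEM) received compound 30 min pre-infection, HSV-1 MOI 0.006, ~24 h incubation; IC50 relative to no-compound fluorescence.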

The subject of the next test is VZV strain Ellen. In words: VZV Antiviral (ELISA) Assay. The class given is cell-based, varicella-zoster virus. The settings on record: human foreskin fibroblast cells; for IC50 / inhibition at 10 µg/mL: Human alphaherpesvirus 3, Fibroblast; for IC50: read-out: IC50 Ug/ml VZV; for inhibition at 10 µg/mL: read-out: % inhibition 10 ug/ml VZV, 10 ug/ml. Put shortly: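 Low-MOI (<0.1) Ellen infection of HFF overnight; cell mix plated 3.5×10^4/well with compound, DMEM + 2% FBS, 3 d, 37° C, 5% CO2. Fix, anti-gpII mAb ELISA, MUG substrate, fluorescence. IC50 vs compound-free signal.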

Consider `CC(=O)Nc1ccc(NC(=S)Nc2cccc(Cl)c2)cc1` [Example 816, N-{4-[3-(3-Chloro-phenyl)-thioureido]-phenyl}-acetamide], for which the IC50 was 25 µg/mL (≈ 78.2 µM) with HCMV wild-type, 20 µg/mL (≈ 62.5 µM) in the test on HSV-1 and over 10 µg/mL with VZV strain Ellen. Also, the inhibition at 10 µg/mL in the test with VZV strain Ellen was 30%.
For `CC(=O)Nc1ccc(NC(=S)Nc2ccc(CCO)c(Cl)c2)cc1` [Example 864, N-(4-{3-[3-Chloro-4-(2-hydroxy-ethyl)-phenyl]-thioureido}-phenyl)-acetamide], the IC50 in the test with HCMV wild-type, in the test on HSV-1 and in the test with VZV strain Ellen was over 10 µg/mL each time. In addition, in the test on VZV strain Ellen, the inhibition at 10 µg/mL came out at 21%.
For `COCCN(C)c1ccc(NC(=S)Nc2ccc(NC(C)=O)cc2)cc1Cl` [Example 317, N-[4-(3-{3-Chloro-4-[(2-methoxy-ethyl)-methyl-amino]-phenyl}-thioureido)-phenyl]-acetamide], the IC50 with HCMV wild-type was 2 µg/mL (≈ 4.91 µM); in the test with HSV-1 it was 35 µg/mL (≈ 86 µM); in the test with VZV strain Ellen it was over 10 µg/mL. For the same molecule, the inhibition at 10 µg/mL in the test on VZV strain Ellen worked out at 30%.
The corresponding values for `CC(=O)Nc1ccc(NC(=S)Nc2ccc(OCc3ccccc3)c(Cl)c2)cc1` [Example 269, N-{4-[3-(4-Benzyloxy-3-chloro-phenyl)-thioureido]-phenyl}-acetamide] are 5 µg/mL (≈ 11.7 µM), over 10 µg/mL, over 10 µg/mL and 38%.
The corresponding values for `COc1ccc(NC(=S)Nc2ccc(NC(C)=O)cc2)cc1C(F)(F)F` [Example 290, N-{4-[3-(4-Methoxy-3-trifluoromethyl-phenyl)-thioureido]-phenyl}-acetamide] are 5 µg/mL (≈ 13 µM), over 50 µg/mL, over 10 µg/mL and 1%.
In the case of `COc1ccc(Cl)cc1NC(=S)Nc1ccc(NC(C)=O)cc1` [Example 107, N-{4-[3-(5-Chloro-2-methoxy-phenyl)-thioureido]-phenyl}-acetamide], the IC50 in the test on HCMV wild-type is over 50 µg/mL; in the test with HSV-1, over 50 µg/mL; with VZV strain Ellen, over 10 µg/mL. For the same molecule, the inhibition at 10 µg/mL in the test with VZV strain Ellen was found to be 20%.
As for “N-{4-[3-(4-Acetylamino-phenyl)-thioureido]-2-chloro-phenyl}-2-thiomorpholin-4-yl-acetamide [Example 405]”, the “IC50 Ug/ml HCMV” value in the test on HCMV wild-type was over 10 Ug/ml. For the same molecule, in the test with HSV-1, the “IC50 Ug/ml HSV” value is over 10 Ug/ml. Besides, in the test with VZV strain Ellen, the “% inhibition 10 ug/ml VZV” value was 83% and the “IC50 Ug/ml VZV” value was found to be 13 Ug/ml.
As to `COc1ccc(NC(=S)Nc2ccc(NC(C)=O)cc2)c(NCc2ccccc2)c1` [Example 245, N-{4-[3-(2-Benzylamino-4-methoxy-phenyl)-thioureido]-phenyl}-acetamide], the IC50 in the test on HCMV wild-type is over 10 µg/mL; with HSV-1, over 10 µg/mL; in the test with VZV strain Ellen, 3.5 µg/mL (≈ 8.32 µM). The inhibition at 10 µg/mL in the test with VZV strain Ellen is 73%.
On to `CC(=O)Nc1ccc(NC(=S)Nc2ccc(N(CCO)CCO)c(Cl)c2)cc1` [Example 905, N-[4-(3-{4-[Bis-(2-hydroxy-ethyl)-amino]-3-chloro-phenyl}-thioureido)-phenyl]-acetamide], for which the IC50 was over 50 µg/mL in the test with HCMV wild-type, over 50 µg/mL in the test on HSV-1 and over 10 µg/mL in the test with VZV strain Ellen. The inhibition at 10 µg/mL in the test with VZV strain Ellen amounted to 36%.
On to `C=CCN(c1ccc(NC(=S)Nc2ccc(NC(C)=O)cc2)cc1Cl)C1CCCCC1` [Example 273, N-(4-{3-[4-(Allyl-cyclohexyl-amino)-3-chloro-phenyl]-thioureido}-phenyl)-cetamide], for which the “IC50 Ug/ml HCMV” value in the test on HCMV wild-type is listed as over 10 Ug/ml. Also, in the test with HSV-1, the “IC50 Ug/ml HSV” value was over 50 Ug/ml. Also, in the test with VZV strain Ellen, the “% inhibition 10 ug/ml VZV” value is 46% and the “IC50 Ug/ml VZV” value is on record as over 10 Ug/ml.
On to `COc1cc(OC)c(NC(=S)Nc2ccc(NC(C)=O)nc2)cc1Cl` [Example 314, N-{5-[3-(5-Chloro-2,4-dimethoxy-phenyl)-thioureido]-pyridin-2-yl}-acetamide], for which the IC50 in the test on HCMV wild-type was 30 µg/mL (≈ 78.8 µM); with HSV-1, 2 µg/mL (≈ 5.25 µM); in the test on VZV strain Ellen it was over 10 µg/mL. Further, the inhibition at 10 µg/mL in the test with VZV strain Ellen was 34%.
As for `CC(=O)Nc1ccc(NC(=S)Nc2ccc(NC(C)=O)c(Cl)c2)cc1` [Example 312, N-{4-[3-(4-Acetylamino-phenyl)-thioureido]-2-chloro-phenyl}-acetamide], the values for the IC50 in the test with HCMV wild-type, in the test with HSV-1 and in the test on VZV strain Ellen were 50 µg/mL (≈ 133 µM), 50 µg/mL (≈ 133 µM) and over 10 µg/mL, respectively. Further, the inhibition at 10 µg/mL with VZV strain Ellen worked out at 22%.
Consider `CC(=O)Nc1ccc(NC(=S)Nc2ccc(NC3CCN(Cc4ccccc4)C3)c(Cl)c2)cc1` (stereo not shown) [Example 319, N-(4-{3-[4-(1-Benzyl-pyrrolidin-3-ylamino)-3-chloro-phenyl]-thioureido}-phenyl)-acetamide], for which the IC50 in the test on HCMV wild-type turned out to be 5 µg/mL (≈ 10.1 µM); in the test on HSV-1, 6 µg/mL (≈ 12.1 µM); with VZV strain Ellen, 7 µg/mL (≈ 14.2 µM). The inhibition at 10 µg/mL in the test with VZV strain Ellen came out at 82%.
As to `CC(=O)Nc1ccc(NC(=S)Nc2ccc(-c3ccno3)c(Cl)c2)cc1` [Example 924, N-{4-[3-(3-Chloro-4-isoxazol-5-yl-phenyl)-thioureido]-phenyl}-acetamide], the IC50 was 0.9 µg/mL (≈ 2.33 µM) in the test on HCMV wild-type, over 10 µg/mL in the test on HSV-1 and over 10 µg/mL with VZV strain Ellen. Also, in the test with VZV strain Ellen, the inhibition at 10 µg/mL was determined as 4%.
Consider `CC(=O)Nc1ccc(NC(=S)Nc2ccc(N(C)c3ccccc3)c(Cl)c2)cc1` [Example 842, N-(4-{3-[3-Chloro-4-(methyl-phenyl-amino)-phenyl]-thioureido}-phenyl)-acetamide], for which the IC50 was 1.5 µg/mL (≈ 3.53 µM) in the test on HCMV wild-type, over 10 µg/mL with HSV-1 and over 10 µg/mL with VZV strain Ellen. In addition, the inhibition at 10 µg/mL in the test on VZV strain Ellen was 33%.
As for `COc1c(NC(=S)Nc2ccc(NC(C)=O)cc2)cc(Cl)c(C)c1Cl` [Example 152, N-{4-[3-(3,5-Dichloro-2-methoxy-4-methyl-phenyl)-thioureido]-phenyl}-acetamide], the “IC50 Ug/ml HCMV” value in the test on HCMV wild-type was 0.8 Ug/ml. The “IC50 Ug/ml HSV” value in the test with HSV-1 was determined as 2 Ug/ml. Also, in the test on VZV strain Ellen, the “% inhibition 10 ug/ml VZV” value is 70% and the “IC50 Ug/ml VZV” value turned out to be 7.5 Ug/ml.
For the molecule `CC(=O)Nc1ccc(NC(=S)Nc2ccc(C(=O)O)c(Cl)c2)cc1` [Example 898, 4-[3-(4-Acetylamino-phenyl)-thioureido]-2-chloro-benzoic acid], the IC50 in the test on HCMV wild-type is over 50 µg/mL; with HSV-1, over 50 µg/mL; in the test with VZV strain Ellen, over 10 µg/mL. In addition, the inhibition at 10 µg/mL with VZV strain Ellen is 0%.
For the molecule `CC(=O)Nc1ccc(NC(=S)Nc2ccc(I)c(Cl)c2)cc1` [Example 903, N-{4-[3-(3-Chloro-4-iodo-phenyl)-thioureido]-phenyl}-acetamide], the IC50 in the test with HCMV wild-type is 0.3 µg/mL (≈ 0.673 µM); in the test with HSV-1 it was 10 µg/mL (≈ 22.4 µM); with VZV strain Ellen, over 10 µg/mL. Besides, the inhibition at 10 µg/mL in the test with VZV strain Ellen turned out to be 26%.
For the molecule `CC(=O)Nc1ccc(NC(=S)Nc2ccc(N3CCN(C)CC3)c(Cl)c2)cc1` [Example 243, N-(4-{3-[3-Chloro-4-(4-methyl-piperazin-1-yl)-phenyl]-thioureido}-phenyl)-acetamide], the IC50 was 40 µg/mL (≈ 95.7 µM) in the test on HCMV wild-type, over 50 µg/mL in the test on HSV-1 and over 10 µg/mL with VZV strain Ellen. For the same molecule, the inhibition at 10 µg/mL in the test with VZV strain Ellen came to 4%.
For `CCCCOc1cc(OC)c(NC(=S)Nc2ccc(NC(C)=O)cc2)cc1Cl` [Example 834, N-{4-[3-(4-Butoxy-5-chloro-2-methoxy-phenyl)-thioureido]-phenyl}-acetamide], the values for the IC50 with HCMV wild-type, in the test on HSV-1 and with VZV strain Ellen were over 10 µg/mL, 10 µg/mL (≈ 23.7 µM) and 15 µg/mL (≈ 35.5 µM), respectively. Further, the inhibition at 10 µg/mL in the test on VZV strain Ellen worked out at 93%.
On to `COc1cc(N2CCOCC2)c(NC(=S)Nc2ccc(NC(C)=O)cc2)cc1Cl` [Example 226, N-{4-[3-(5-Chloro-4-methoxy-2-morpholin-4-yl-phenyl)-thioureido]-phenyl}-Acetamide], for which the IC50 was over 50 µg/mL with HCMV wild-type, over 50 µg/mL in the test on HSV-1 and over 10 µg/mL with VZV strain Ellen. Further, the inhibition at 10 µg/mL in the test with VZV strain Ellen was found to be 35%.
As to `CC(=O)Nc1ccc(NC(=S)Nc2ccc(N(C)C3CCN(C)C3)c(Cl)c2)cc1` (stereo not shown) [Example 845, N-[4-(3-{3-Chloro-4-[methyl-(1-methyl-pyrrolidin-3-yl)-amino]-phenyl}-thioureido)-phenyl]-acetamide], the IC50 is 1 µg/mL (≈ 2.31 µM) with HCMV wild-type, 20 µg/mL (≈ 46.3 µM) with HSV-1 and over 10 µg/mL with VZV strain Ellen. For the same molecule, the inhibition at 10 µg/mL in the test with VZV strain Ellen turned out to be 25%.
The corresponding values for `CC(=O)Nc1ccc(NC(=S)Nc2ccc(OCC#N)c(Cl)c2)cc1` [Example 251, N-(4-{3-[3-Chloro-4-(2-nitrilo-ethoxy)-phenyl]-thioureido}-phenyl)-acetamide] are 7 µg/mL (≈ 18.7 µM), over 50 µg/mL, over 10 µg/mL and 22%.
For `CC(=O)Nc1ccc(NC(=S)Nc2ccc(Cl)c(Cl)c2)cc1` [Example 901, N-{4-[3-(3,4-Dichloro-phenyl)-thioureido]-phenyl}-acetamide], the IC50 was 2.5 µg/mL (≈ 7.06 µM) with HCMV wild-type, 1.5 µg/mL (≈ 4.23 µM) with HSV-1 and over 10 µg/mL with VZV strain Ellen. The inhibition at 10 µg/mL with VZV strain Ellen amounted to 1%.
Turning to `CCCCOc1c(Cl)cc(NC(=S)Nc2ccc(NC(C)=O)cc2)cc1Cl` [Example 177, N-{4-[3-(4-Butoxy-3,5-dichloro-phenyl)-thioureido]-phenyl}-acetamide], the IC50 in the test on HCMV wild-type was 3.5 µg/mL (≈ 8.21 µM); in the test on HSV-1 it was over 50 µg/mL; in the test on VZV strain Ellen, over 10 µg/mL. Moreover, the inhibition at 10 µg/mL in the test with VZV strain Ellen was 19%.
